Measured values reported in patent publication EP0677039B1, “CYCLOBUTANE DERIVATIVES AS INHIBITORS OF […] SYNTHETASE AND PROTEIN […]” (Abbott Laboratories, priority 1993, dated 1995).

What follows are compounds tested against T1, Rat liver microsomal squalene synthetase (Rattus norvegicus, UniProt Q02769) (assay: In vitro inhibition of squalene synthetase). Settings: 10 µM test compound; rat liver microsomes, labelled farnesyl pyrophosphate, 10 minutes at 37 °C; compared to controls with no test compound.
T1 construct: Rat liver microsome, the source of enzyme; from tissue; host or cells: rat liver microsomes
T1 sequence (Q02769 1-416): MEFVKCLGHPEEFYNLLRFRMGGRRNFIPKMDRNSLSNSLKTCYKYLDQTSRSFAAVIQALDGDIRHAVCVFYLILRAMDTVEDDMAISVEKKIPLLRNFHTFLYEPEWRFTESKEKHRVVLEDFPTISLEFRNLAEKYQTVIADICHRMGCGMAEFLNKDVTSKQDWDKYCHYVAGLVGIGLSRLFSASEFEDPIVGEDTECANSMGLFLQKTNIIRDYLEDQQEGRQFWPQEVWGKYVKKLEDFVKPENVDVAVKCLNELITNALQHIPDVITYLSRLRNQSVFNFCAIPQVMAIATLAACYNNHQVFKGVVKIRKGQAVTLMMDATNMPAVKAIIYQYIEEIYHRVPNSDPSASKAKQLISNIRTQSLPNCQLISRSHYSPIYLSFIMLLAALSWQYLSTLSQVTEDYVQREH
Type: biochemical
Experimental: In vitro inhibition of squalene synthetase may be measured by the following procedure. Rat liver microsomal squalene synthetase activity was measured using farnesyl pyrophosphate as a substrate and quantitating squalene synthesis using labelled farnesyl pyrophosphate and counting the squalene formed. Rat liver microsome, the source of enzyme, was prepared according to the method of Gillies, P. J., et al., Exp. Molc. Pathol. 44: 329-339 (1986), a modification of the procedure of Erickson, S. K., and Cooper, A. D., Metabolism, 29: 991-996 (1980). […] Oxygen was excluded from the closed incubation tube by degassing with nitrogen. The reaction was terminated by the addition of ethanolic KOH and after degassing with N2, the microsomal membranes were solubilized by heating at 60 °C for 30 minutes. The squalene was extracted into hexane, and the squalene was separated from all other radioactive molecules by passage over an activated alumina column. […] The per cent inhibition at a dose of 10 µM (or 1 µM) compared to controls with no test compound was determined. […]

Compound	inhibition at 10 µM
O=C(O)[C@H]1[C@H](C(=O)O)[C@H](C(=O)N(Cc2ccc(Oc3ccccc3)cc2)C2CC2)[C@H]1C(=O)N(Cc1ccc(Oc2ccccc2)cc1)C1CC1 [Example 30, (1α,2β,3β,4α)-1,2-Di[N-cyclopropyl-N-(4-phenoxybenzyl)aminocarbonyl]cyclobutane-3,4-dicarboxylic acid]	67%
CCCN(C(=O)[C@H]1[C@@H](C(=O)O)[C@H](C(=O)O)[C@@H]1C(=O)N(CCC)c1ccc(Nc2ccccc2)cc1)c1ccc(Nc2ccccc2)cc1 [Example 66C, (1α,2β,3β,4α)-1,2-Di[N-propyl-N-(4-phenylaminophenyl)aminocarbonyl]cyclobutane-3,4-dicarboxylic acid]	33%
O=C(O)[C@H]1[C@H](C(=O)O)[C@H](C(=O)N(Cc2ccccc2)Cc2ccc(Oc3ccccc3)cc2)[C@H]1C(=O)N(Cc1ccccc1)Cc1ccc(Oc2ccccc2)cc1 [Example 15, (1α,2β,3β,4α)-1,2-Di[N-benzyl-N-(4-phenoxybenzyl)aminocarbonyl]cyclobutane-3,4-dicarboxylic acid]	99%
COC(=O)CN(Cc1ccc(Oc2ccccc2)cc1)C(=O)[C@H]1[C@@H](C(=O)O)[C@H](C(=O)O)[C@@H]1C(=O)N(CC(=O)OC)Cc1ccc(Oc2ccccc2)cc1 [Example 59, (1α,2β,3β,4α)-1,2-Di[N-(4-phenoxybenzyl)-N-(methoxycarbonylmethyl)aminocarbonyl]cyclobutane-3,4-dicarboxylic acid]	50%
CCCN(Cc1ccc(Cc2ccccc2)cc1)C(=O)[C@H]1[C@@H](C(=O)O)[C@H](C(=O)O)[C@@H]1C(=O)N(CCC)Cc1ccc(Cc2ccccc2)cc1 [Example 25, (1α,2β,3β,4α)-1,2-Di[N-propyl-N-(4-benzylbenzyl)aminocarbonyl]cyclobutane-3,4-dicarboxylic acid]	84%
C[C@@H](c1ccccc1)N(Cc1ccc(Oc2ccccc2)cc1)C(=O)[C@H]1[C@@H](C(=O)O)[C@H](C(=O)O)[C@@H]1C(=O)N(Cc1ccc(Oc2ccccc2)cc1)[C@@H](C)c1ccccc1 [Example 34]	89%
CCCN(Cc1ccc(Oc2ccccc2)cc1)C(=O)[C@H]1[C@@H](C(=O)O)[C@H](C(=O)O)[C@@H]1C(=O)N(Cc1ccccc1)Cc1ccc(Oc2ccccc2)cc1 [Example 63, (1α,2β,3β,4α)-1-[N-Propyl-N-(4-phenoxybenzyl)aminocarbonyl]-2-[N-benzyl-N-(4-phenoxybenzyl)aminocarbonyl]cyclobutane-3,4-dicarboxylic acid]	90%
CCCN(Cc1ccc(Oc2ccccc2)cc1)C(=O)[C@H]1[C@@H](C(=O)O)[C@H](C(=O)O)[C@@H]1C(=O)N(C)CC/C=C(\C)CCC=C(C)C [Example 62B, (1α,2β,3β,4α)-1-[N-Propyl-N-(4-phenoxybenzyl)aminocarbonyl]-2-[N-methyl-N-(homogeranyl)aminocarbonyl]cyclobutane-3,4-dicarboxylic acid]	83%

Next, values leading:

inhibition at 10 µM	Compound
73%	CCCN(Cc1cccc(Oc2ccccc2)c1)C(=O)C1C(C(=O)O)C(C(=O)O)C1C(=O)N(CCC)Cc1cccc(Oc2ccccc2)c1 (stereo not drawn) [Example 81B, (1α,2β,3β,4α)-1,2-Di[N-propyl-N-(3-phenoxybenzyl)aminocarbonyl]cyclobutane-3.4-dicarboxylic acid]
88%	CCCN(Cc1ccc(Oc2ccccc2)c(C)c1)C(=O)C1C(C(=O)O)C(C(=O)O)C1C(=O)N(CCC)Cc1ccc(Oc2ccccc2)c(C)c1 (stereo not drawn) [Example 89C, (1α,2β,3β,4α)-1-2-Di{N-propyl-[3-methyl-4-phenoxybenzyl]aminocarbonyl}cyclobutane-3,4-dicarboxylic acid]
92%	CCCN(Cc1ccc(Oc2ccccc2)cc1)C(=O)C1C(C(=O)O)C(C(=O)NCC(=O)O)C1C(=O)N(CCC)Cc1ccc(Oc2ccccc2)cc1 (stereo not drawn) [Example 106, (1α,2β,3β,4α)-1,2-Di[N-propyl-N-(4-phenoxybenzyl)aminocarbonyl]cyclobutane-3-4-dicarboxylic acid mono-Glycine amide]
67%	CCCN(Cc1ccc(Oc2ccccc2)o1)C(=O)C1C(C(=O)O)C(C(=O)O)C1C(=O)N(CCC)Cc1ccc(Oc2ccccc2)o1 (stereo not drawn) [Example 82B, (1α,2β,3β,4α)-1,2-Di[N-propyl-N-(5-phenoxyfurfuryl)aminocarbonyl}cyclobutane-3,4-dicarboxylic acid]
80%	CCCN(Cc1ccc(Oc2ccccc2)cc1)C(=O)C1C(CO)C(C(=O)O)C1C(=O)N(CCC)Cc1ccc(Oc2ccccc2)cc1 (stereo not drawn) [Example 70B, (1α,2β,3β,4α)-1,2-Di[N-propyl-N-(4-phenoxybenzyl)aminocarbonyl]-4-hydroxymethyl-cyclobutane-3-carboxylic acid]
84%	CCCN(Cc1ccc(Oc2ccccc2)cc1)C(=O)[C@@H]1[C@H](C(=O)O)[C@@H](NS(=O)(=O)C(F)(F)F)[C@H]1C(=O)N(CCC)Cc1ccc(Oc2ccccc2)cc1 (relative stereo) [Example 100C, (1α,2β,3β,4α)-1,2-Di[N-propyl-N-(4-phenoxybenzyl)aminocarbonyl]-3-[(trifluoromethanesulfonyl)amino]cyclobutane-4-carboxylic Acid]

Same assay, conditions: values marked * in Table 1: 1 µM test compound; rat liver microsomes, labelled farnesyl pyrophosphate, 10 minutes at 37 °C

Compound	inhibition at 1 µM
CCSCCN(Cc1ccc(Oc2ccccc2)cc1)C(=O)C1C(C(=O)O)C(C(=O)O)C1C(=O)N(CCSCC)Cc1ccc(Oc2ccccc2)cc1 (stereo not drawn) [Example 42, (1α,2β,3β,4α)-1,2-Di[N-(2-ethylthioethyl)-N-(4-phenoxybenzyl)aminocarbonyl]cyclobutane-3,4-dicarboxylic acid]	81%
O=C(O)C1C(C(=O)O)C(C(=O)N(Cc2ccc(Oc3ccccc3)cc2)Cc2cccs2)C1C(=O)N(Cc1ccc(Oc2ccccc2)cc1)Cc1cccs1 (stereo not drawn) [Example 45, (1α,2β,3β,4α)-1,2-Di[N-(thien-2-ylmethyl)-N-(4-phenoxybenzyl)aminocarbonyl]cyclobutane-3,4-dicarboxylic acid]	50%
O=C(O)C1C(C(=O)O)C(C(=O)N(Cc2ccc(F)cc2)Cc2ccc(Oc3ccccc3)cc2)C1C(=O)N(Cc1ccc(F)cc1)Cc1ccc(Oc2ccccc2)cc1 (stereo not drawn) [Example 53B, (1α,2β,3β,4α)-1,2-Di[N-(4-fluorobenzyl)-N-(4-phenoxybenzyl)aminocarbonyl]cyclobutane-3.4-dicarboxylic acid]	63%
O=C(O)C1C(C(=O)O)C(C(=O)N(Cc2ccc(Oc3ccccc3)cc2)C2CCC2)C1C(=O)N(Cc1ccc(Oc2ccccc2)cc1)C1CCC1 (stereo not drawn) [Example 48, (1α,2β,3β,4α)-1,2-Di[N-cyclobutyl-N-(4-phenoxybenzyl)aminocarbonyl]cyclobutane-3,4-dicarboxylic acid]	79%

The remaining lines, values ahead:

inhibition at 1 µM	Compound
56%	CCCN(Cc1ccc(COc2ccccc2)cc1)C(=O)C1C(C(=O)O)C(C(=O)O)C1C(=O)N(CCC)Cc1ccc(COc2ccccc2)cc1 (stereo not drawn) [Example 69E, (1α,2β,3β,4α)-1,2-Di[N-propyl-N-[4-phenoxymethylbenzyl]aminocarbonyl]cyclobutane-3,4-dicarboxylic acid]
78%	CCCN(Cc1ccc(Oc2ccccc2)cc1)C(=O)C1C(C(=O)O)C(C(=O)NC(CC(=O)O)C(=O)O)C1C(=O)N(CCC)Cc1ccc(Oc2ccccc2)cc1 (stereo not drawn) [Example 109, (1α,2β,3β,4α)-1,2-Di[N-propyl-N-(4-phenoxybenzyl)aminocarbonyl]cyclobutane-3,4-dicarboxylic acid mono-d,l-Aspartic acid amide]
86%	CCCN(Cc1ccc(Oc2ccccc2)cc1)C(=O)[C@@H]1[C@H](C(=O)O)[C@@H](CC(=O)O)[C@H]1C(=O)N(CCC)Cc1ccc(Oc2ccccc2)cc1 (relative stereo) [Example 101C]
55%	CCCN(Cc1ccc(Oc2ccccc2)cc1)C(=O)C1C(NC(=O)C(=O)O)C(C(=O)O)C1C(=O)N(CCC)Cc1ccc(Oc2ccccc2)cc1 (stereo not shown) [Example 74D]
48%	CCCN(Cc1ccc(Oc2ccccc2)cc1)C(=S)C1C(C(=O)O)C(C(=O)O)C1C(=S)N(CCC)Cc1ccc(Oc2ccccc2)cc1 (stereo not drawn) [Example 130B, (1α,2β,3β,4α)-1,2-Di[N-propyl-N-(4-phenoxybenzyl)aminothiocarbonyl]cyclobutane-3,4-dicarboxylic acid]

Same assay, conditions: values marked * in Table 1: 1 µM test compound; rat liver microsomes, labelled farnesyl pyrophosphate, 10 minutes at 37 °C; 1 µM

% Inhibition at 1 µM	Compound
48* %	(1α,2β,3β,4α)-1,2-Di[N-propyl-N-(4-phenoxybenzyl)aminocarbonyl]cyclobutane-3-phenoxycarbonyl-4-carboxylic acid [Example 105A]
71* %	CCCCC(NC(=O)[C@@H]1[C@@H](C(=O)O)[C@@H](C(=O)N(CCC)Cc2ccc(Oc3ccccc3)cc2)[C@@H]1C(=O)N(CCC)Cc1ccc(Oc2ccccc2)cc1)C(=O)O (single isomer, unassigned) [Example 104B, (1α,2β,3β,4α)-1,2-Di[N-propyl-N-(4-phenoxybenzyl)aminocarbonyl]cyclobutane-3,4-dicarboxylic acid Mono-Norleucine Amide]
